This data set in a line: Stability test of crystalline Form I and free compound (properties, relevant substances by HPLC, XRD). The format is physicochemical. The procedure:
The crystalline Form I of the co-crystal of the compound of Formula (1) with L-proline, which was prepared according to the methods in the examples; free compound of Formula (1).
The test samples were placed under conditions of 60° C., 40° C., RH 90%±5%, RH 75%±5%, 4500lx±500lx or UV-Vis for 10 days, […], and the samples were tested for relevant substances and XRD pattern; and the results were compared with those of a sample on the 0th day.
Determination of the relevant substances: the determination was carried out in accordance with High Performance Liquid Chromatography in Appendix V D in Pharmacopoeia of the People's Republic of China (2010) (Volume II).
XRD measurement: the measurement was carried out in accordance with X-Ray Powder Diffraction in Appendix IX F in Pharmacopoeia of the People's Republic of China (2010) (Volume II).

Where [1] appears, read: 0th day (baseline, listed under 60° C.).
Where [2] appears, read: UV-Vis, total illumination ≥1.2 × 10^6 Lux·h, near ultraviolet energy ≥200 w·h/m^2.
The mark [3] stands for this setting: conditions that meet the illumination requirement (UV-Vis).

As for `O=C(O)[C@@H]1CCCN1.O=C(O)[C@@H]1CCCN1.OC[C@H]1O[C@@H](c2ccc(Cl)c(Cc3ccc(O[C@H]4C[C@@H]5C[C@@H]5C4)cc3)c2)[C@H](O)[C@@H](O)[C@@H]1O` [crystalline Form I], the “Relevant substances (%)” value is 0.60% under setting [1]; 0.67% (40° C., 5th day); 0.65% (40° C., 10th day); 0.68% (60° C., 5th day); 0.62% (60° C., 10th day); 0.66% (4500 lx ± 500 lx, 5th day). For the same molecule, the “Relevant substances (%)” value is, setting by setting: (4500 lx ± 500 lx, 10th day) 0.71%; (RH75% ± 5%, 5th day) 0.66%; (RH75% ± 5%, 10th day) 0.64%; (RH90% ± 5%, 5th day) 0.65%; (RH90% ± 5%, 10th day) 0.63%. Besides, the “Stability compared with the free base of the compound” value (overall conclusion of the stability test) is “better stability”. In addition, under “temperature, humidity or light conditions for 10 days”, the “Change of property, relevant substances and XRD pattern” value is “did not change significantly”.

Take `OC[C@H]1O[C@@H](c2ccc(Cl)c(Cc3ccc(O[C@H]4C[C@@H]5C[C@@H]5C4)cc3)c2)[C@H](O)[C@@H](O)[C@@H]1O` [free compound of Formula (1), (2S,3R,4R,5S,6R)-2-(3-(4-(((1R,3s,5S)-bicyclo[3.1.0]hexan-3-yl)oxy)benzyl)-4-chlorophenyl)-6-(hydroxymethyl)tetrahydro-2H-pyran-3,4,5-triol]: the “Relevant substances (%)” value is, setting by setting: under setting [1], 1.35%; (40° C., 10th day) 1.44%; (60° C., 10th day) 1.43%; under setting [2], 9.91%. For the same molecule, the XRD entry by setting is: under setting [1], “Amorphism”; (40° C., 10th day) “Amorphism”; (60° C., 10th day) “Amorphism”; (RH75% ± 5%, 6th day) “Amorphism”; (RH90% ± 5%, 6th day) “Amorphism”; under setting [2], “Amorphism”. The “Hygroscopicity under humidity conditions” value (RH90% ± 5% / RH75% ± 5%, 6th day) is on record as “significant hygroscopic deliquescence”. Further, the Properties entry under setting [2] is “Tawny powder”. The “Change of property of the sample” value under setting [3] is “changed from an almost white powder to a tawny powder”. In addition, under setting [3], the “Increase of relevant substances relative to 0th day” value is on record as 8.56%. Further, the “Change of amount of relevant substances” value (temperature conditions (60° C., 40° C.) for 10 days) is listed as “increased”.

For the origin of these results see US10793588B2, “Crystal form of sodium-glucose cotransporter 2 inhibitor” (HAINAN XUANZHU PHARMA CO., LTD., priority 2016, dated 2020).
